Laboratory results as given in US8022072B2, “Azolylmethylidenehydrazine derivative and use thereof” (Kaken Pharmaceutical Co., Ltd., priority 2007, dated 2011).
Converted amounts (≈) assume the structure as drawn.

What was measured:
Type in all cases: cell-based
[1] = test system: Trichophyton mentagrophytes KD-04; assay: Antifungal activity evaluation test, MIC, Trichophyton mentagrophytes KD-04; settings: KD04, 168 h, Sabouraud Dextrose Broth, 30° C., 7 days, visual, read-out: MIC T. men. KD-04
Protocol: (§1) The minimum inhibitory concentration (MIC) for Trichophyton mentagrophytes, Trichophyton rubrum, and Malassezia furfur was measured according to the following procedure. • Test compound solution: A test compound was dissolved in dimethyl sulfoxide (DMSO) at a concentration of 5 mg/mL as a stock solution. […] Then, as a test medium, a fungal solution of Trichophyton species was 100-fold diluted with Sabouraud Dextrose Broth (Difco), and a fungal solution of Malassezia furfur IFO-0656 was 100-fold diluted with MU medium to give each inoculum (2×10^4 cells/mL). • Measurement of MIC of Trichophyton fungi: Sabouraud Dextrose Broth (Difco) was dispensed by 100 μL to a given well of a 96 well flat microplate. Then, a test compound solution (2 μL) was added, and the mixture was thoroughly mixed with a plate mixer. A fungal solution (100 μL) was inoculated and cultured at 30° C. for 7 days. The presence or absence of the cell growth was visually observed, and the minimum medicament concentration at which the cell growth was prevented was taken as MIC (μg/mL). • Measurement of MIC of Malassezia furfur: Since the urease activity of this fungus and the fungus growth rate are co-related, MIC was evaluated by the following method using urease activity as an index. MU medium was dispensed by 100 μL to a given well of a 96 well flat microplate. Then, a test compound solution (2 μL) was added, and the mixture was thoroughly mixed with a plate mixer. A fungal solution (100 μL) was inoculated and cultured at 30° C. The culture was stopped on day 4 or 5 of culture when the color tone of the MU medium changes from yellow to red in visual observation of the fungus growth in a well free of addition of a test substance. Then the plate was stirred until the fungus became uniform, and the urease activity was measured based on the measurement of absorbance at 550 nm using a plate reader.

[2] = test system: Trichophyton mentagrophytes SM-110; assay: Antifungal activity evaluation test, MIC, Trichophyton mentagrophytes SM-110; settings: SM110, 168 h, Sabouraud Dextrose Broth, 30° C., 7 days, visual, read-out: MIC T. men. SM-110
Protocol: as §1

[3] = test system: Trichophyton rubrum KD-101; assay: Antifungal activity evaluation test, MIC, Trichophyton rubrum KD-101; settings: KD101, 168 h, Sabouraud Dextrose Broth, 30° C., 7 days, visual, read-out: MIC T. rub. KD-101
Protocol: as §1

[4] = test system: Trichophyton rubrum KD-107; assay: Antifungal activity evaluation test, MIC, Trichophyton rubrum KD-107; settings: KD107, 168 h, Sabouraud Dextrose Broth, 30° C., 7 days, visual, read-out: MIC T. rub. KD-107
Protocol: as §1

[5] = test system: Malassezia furfur IFO-0656; assay: Antifungal activity evaluation test, MIC by urease activity, Malassezia furfur IFO-0656; settings: IFO0656, 96 h, MU medium, 30° C., day 4 or 5, urease activity of 20% or below, read-out: MIC M. fur. IFO-0656
Protocol: as §1

[6] = test system: Trichophyton mentagrophytes KD-04; assay: Influence of keratin addition on anti-Trichophyton activity; settings: for MIC: Trichophyton mentagrophytes, KD04, 168 h, 30° C., 7 days; for MIC increase by the addition of keratin to medium: Trichophyton, text summary of Table 4
Protocol: The MIC increase rate by the addition of keratin to a medium was measured by the following procedure. • Test compound solution: A test compound was dissolved in dimethyl sulfoxide (DMSO) at a concentration of 5 mg/mL as a stock solution. Diluting this solution with DMSO, a 2-fold dilution series was prepared. • Test strain: Trichophyton mentagrophytes KD-04 was used. Preparation of Fungal Inoculum: the Above-Mentioned Strain was suspended in 0.05% Tween 80-containing physiological saline, and adjusted to a fungus concentration of 2×10^6 cells/mL using a counting chamber. […] The physiological saline was removed, and the mixture was further washed once with physiological saline (3 mL). The physiological saline was removed, and a test compound solution (10 μL) and Sabouraud Dextrose Broth (Difco) (500 μL) were added to keratin, and the mixture was sufficiently stirred. Then, inoculum (500 μL) of T. mentagrophytes KD-04 was added, and the mixture was cultured at 30° C. for 7 days. As a comparison control, an experiment similar to the above was performed under conditions free of keratin addition.

[7] = T. mentagrophytes KD-04, free of keratin addition, read-out: MIC SDB alone
[8] = T. mentagrophytes KD-04, keratin 50 mg added, read-out: MIC SDB + keratin

CCC(C)(C)c1ccc(CC(C)CN2C[C@@H](C)O[C@@H](C)C2)cc1 (stereo partly shown) [AMF, amorolfine, reference compound]
MIC [1]: 0.1 µg/mL (≈ 0.315 µM)
MIC [2]: 0.05 µg/mL (≈ 0.157 µM)
MIC [3]: 0.025 µg/mL (≈ 0.0787 µM)
MIC [4]: 0.025 µg/mL (≈ 0.0787 µM)
MIC [5]: 0.05 µg/mL (≈ 0.157 µM)
MIC [6, 7]: 0.05 µg/mL (≈ 0.157 µM)
MIC [6, 8]: 0.39 µg/mL

CCc1ccccc1C(=NN(C)C)n1ccnc1 [Compound No. 4, N′-[1-(2-ethylphenyl)-1-imidazol-1-ylmethylidene]-N,N-dimethylhydrazine]
MIC [1]: 0.39 µg/mL (≈ 1.61 µM)
MIC [2]: 0.78 µg/mL (≈ 3.22 µM)
MIC [3]: 0.78 µg/mL (≈ 3.22 µM)
MIC [4]: 0.78 µg/mL (≈ 3.22 µM)
MIC [5]: > 25 µg/mL
MIC [6, 7]: 0.39 µg/mL (≈ 1.61 µM)
MIC [6, 8]: 0.78 µg/mL

CCOc1ccccc1C(=NN(C)C)n1ccnc1 [Compound No. 16, N′-[1-(2-ethoxyphenyl)-1-imidazol-1-ylmethylidene]-N,N-dimethylhydrazine]
MIC [1]: 0.2 µg/mL (≈ 0.774 µM)
MIC [2]: 0.39 µg/mL (≈ 1.51 µM)
MIC [3]: 0.2 µg/mL (≈ 0.774 µM)
MIC [4]: 0.2 µg/mL (≈ 0.774 µM)
MIC [5]: 12.5 µg/mL (≈ 48.4 µM)
MIC [6, 7]: 0.39 µg/mL (≈ 1.51 µM)
MIC [6, 8]: 0.39 µg/mL

CCCOc1ccccc1C(=NN(C)C)n1ccnc1 [Compound No. 17, N′-[1-imidazol-1-yl-1-(2-propoxyphenyl)methylidene]-N,N-dimethylhydrazine]
MIC [1]: 0.2 µg/mL (≈ 0.734 µM)
MIC [2]: 0.39 µg/mL (≈ 1.43 µM)
MIC [3]: 0.2 µg/mL (≈ 0.734 µM)
MIC [4]: 0.2 µg/mL (≈ 0.734 µM)
MIC [5]: 3.13 µg/mL (≈ 11.5 µM)
MIC [6, 7]: 0.05 µg/mL (≈ 0.184 µM)
MIC [6, 8]: 0.1 µg/mL

C=CCOc1ccccc1C(=NN(C)C)n1ccnc1 [Compound No. 20, N′-[1-(2-allyloxyphenyl)-1-imidazol-1-ylmethylidene]-N,N-dimethylhydrazine]
MIC [1]: 0.2 µg/mL (≈ 0.74 µM)
MIC [2]: 0.39 µg/mL (≈ 1.44 µM)
MIC [3]: 0.1 µg/mL (≈ 0.37 µM)
MIC [4]: 0.1 µg/mL (≈ 0.37 µM)
MIC [5]: 12.5 µg/mL (≈ 46.2 µM)
MIC [6, 7]: 0.1 µg/mL (≈ 0.37 µM)
MIC [6, 8]: 0.2 µg/mL

C/C=C\Oc1ccccc1C(=NN(C)C)n1ccnc1 [Compound No. 21, N′-[1-imidazol-1-yl-1-(2-(Z)-propenyloxyphenyl)methylidene]-N,N-dimethylhydrazine]
MIC [1]: 0.2 µg/mL (≈ 0.74 µM)
MIC [2]: 0.39 µg/mL (≈ 1.44 µM)
MIC [3]: 0.2 µg/mL (≈ 0.74 µM)
MIC [4]: 0.2 µg/mL (≈ 0.74 µM)
MIC [5]: 6.25 µg/mL (≈ 23.1 µM)
MIC [6, 7]: 0.2 µg/mL (≈ 0.74 µM)
MIC [6, 8]: 0.2 µg/mL

CCCCOc1ccccc1C(=NN(C)C)n1ccnc1 [Compound No. 23, N′-[1-(2-butoxyphenyl)-1-imidazol-1-ylmethylidene]-N,N-dimethylhydrazine]
MIC [1]: 0.1 µg/mL (≈ 0.349 µM)
MIC [2]: 0.2 µg/mL (≈ 0.698 µM)
MIC [3]: 0.1 µg/mL (≈ 0.349 µM)
MIC [4]: 0.1 µg/mL (≈ 0.349 µM)
MIC [5]: 0.39 µg/mL (≈ 1.36 µM)
MIC [6, 7]: 0.1 µg/mL (≈ 0.349 µM)
MIC [6, 8]: 0.2 µg/mL

CN(C)N=C(c1ccccc1OC(F)(F)F)n1ccnc1 [Compound No. 32, N′-[1-imidazol-1-yl-1-(2-trifluoromethoxyphenyl)methylidene]-N,N-dimethylhydrazine]
MIC [1]: 0.2 µg/mL (≈ 0.671 µM)
MIC [2]: 0.78 µg/mL (≈ 2.62 µM)
MIC [3]: 0.39 µg/mL (≈ 1.31 µM)
MIC [4]: 0.39 µg/mL (≈ 1.31 µM)
MIC [5]: 6.25 µg/mL (≈ 21 µM)
MIC [6, 7]: 0.1 µg/mL (≈ 0.335 µM)
MIC [6, 8]: 0.2 µg/mL

CN(C)N=C(c1ccccc1OC(F)(F)C(F)F)n1ccnc1 [Compound No. 33, N′-[1-imidazol-1-yl-1-[2-(1,1,2,2-tetrafluoroethoxy)phenyl]methylidene]-N,N-dimethylhydrazine]
MIC [1]: 0.78 µg/mL (≈ 2.36 µM)
MIC [2]: 1.56 µg/mL (≈ 4.72 µM)
MIC [3]: 0.78 µg/mL (≈ 2.36 µM)
MIC [4]: 0.39 µg/mL (≈ 1.18 µM)
MIC [5]: 6.25 µg/mL (≈ 18.9 µM)
MIC [6, 7]: 0.39 µg/mL (≈ 1.18 µM)
MIC [6, 8]: 0.39 µg/mL

CN(C)N=C(c1ccccc1OCCc1ccc(N(C)C)cc1)n1ccnc1 [Compound No. 60, N′-[1-imidazol-1-yl-1-[2-(4-dimethylaminophenethyloxy)phenyl]methylidene]-N,N-dimethylhydrazine]
MIC [1]: 0.2 µg/mL (≈ 0.53 µM)
MIC [2]: 0.39 µg/mL (≈ 1.03 µM)
MIC [3]: 0.2 µg/mL (≈ 0.53 µM)
MIC [4]: 0.1 µg/mL (≈ 0.265 µM)
MIC [5]: 0.2 µg/mL (≈ 0.53 µM)
MIC [6, 7]: 0.1 µg/mL (≈ 0.265 µM)
MIC [6, 8]: 0.2 µg/mL

COc1ccc(OCCOc2ccccc2C(=NN(C)C)n2ccnc2)cc1 [Compound No. 69, N′-[1-imidazol-1-yl-1-[2-[2-(4-methoxyphenoxy)ethoxy]phenyl]methylidene]-N,N-dimethylhydrazine]
MIC [1]: 0.2 µg/mL (≈ 0.526 µM)
MIC [2]: 0.39 µg/mL (≈ 1.03 µM)
MIC [3]: 0.05 µg/mL (≈ 0.131 µM)
MIC [4]: 0.05 µg/mL (≈ 0.131 µM)
MIC [5]: 1.56 µg/mL (≈ 4.1 µM)
MIC [6, 7]: 0.2 µg/mL (≈ 0.526 µM)
MIC [6, 8]: 0.39 µg/mL

CCSc1ccccc1C(=NN(C)C)n1ccnc1 [Compound No. 80, N′-[1-(2-ethylthiophenyl)-1-imidazol-1-ylmethylidene]-N,N-dimethylhydrazine]
MIC [1]: 0.2 µg/mL (≈ 0.729 µM)
MIC [2]: 0.78 µg/mL (≈ 2.84 µM)
MIC [3]: 0.39 µg/mL (≈ 1.42 µM)
MIC [4]: 0.39 µg/mL (≈ 1.42 µM)
MIC [5]: 12.5 µg/mL (≈ 45.6 µM)
MIC [6, 7]: 0.78 µg/mL (≈ 2.84 µM)
MIC [6, 8]: 0.78 µg/mL

CCCSc1ccccc1C(=NN(C)C)n1ccnc1 [Compound No. 81, N′-[1-imidazol-1-yl-1-(2-propylthiophenyl)methylidene]-N,N-dimethylhydrazine]
MIC [1]: 0.2 µg/mL (≈ 0.693 µM)
MIC [2]: 0.39 µg/mL (≈ 1.35 µM)
MIC [3]: 0.39 µg/mL (≈ 1.35 µM)
MIC [4]: 0.2 µg/mL (≈ 0.693 µM)
MIC [5]: 3.13 µg/mL (≈ 10.9 µM)
MIC [6, 7]: 0.39 µg/mL (≈ 1.35 µM)
MIC [6, 8]: 0.39 µg/mL

CCCCCOc1ccc(OC)cc1C(=NN1CCCCCC1)n1ccnc1 [Compound No. 211, homopiperidin-1-yl-[1-imidazol-1-yl-1-(5-methoxy-2-pentyloxyphenyl)methylidene]amine]
MIC [1]: 0.2 µg/mL (≈ 0.52 µM)
MIC [2]: 0.39 µg/mL (≈ 1.01 µM)
MIC [3]: 0.2 µg/mL (≈ 0.52 µM)
MIC [4]: 0.1 µg/mL (≈ 0.26 µM)
MIC [5]: 1.56 µg/mL (≈ 4.06 µM)

c1ccc(Oc2ccccc2C(=NN2CCCCCC2)n2ccnc2)cc1 [Compound No. 212, homopiperidin-1-yl-[1-imidazol-1-yl-1-(2-phenoxyphenyl)methylidene]amine]
MIC [1]: 0.39 µg/mL (≈ 1.08 µM)
MIC [2]: 0.78 µg/mL (≈ 2.16 µM)
MIC [3]: 0.78 µg/mL (≈ 2.16 µM)
MIC [4]: 0.39 µg/mL (≈ 1.08 µM)
MIC [5]: 25 µg/mL (≈ 69.4 µM)

CCC(C)(C)c1ccc(CC(C)CN2C[C@@H](C)O[C@@H](C)C2)cc1 (stereo partly shown) [amorolfine, reference compound]
MIC increase by the addition of keratin to medium [6]: 8 fold

CCC(C)n1ncn(-c2ccc(N3CCN(c4ccc(OCC5COC(Cn6cncn6)(c6ccc(Cl)cc6Cl)O5)cc4)CC3)cc2)c1=O (stereo not shown) [itraconazole, reference compound]
MIC increase by the addition of keratin to medium [6]: 512 fold
